Here are results for 7 cell lines from the supplement of paper PMC10307832.

Common to all, as to experiment: relative viability (nuclei count vs DMSO), 5 days (fraction); higher = more cells survive
Compound in the assay “Masitinib + Lapatinib”: Cc1ccc(NC(=O)c2ccc(CN3CCN(C)CC3)cc2)cc1Nc1nc(-c2cccnc2)cs1 [Masitinib] + CS(=O)(=O)CCNCc1ccc(-c2ccc3ncnc(Nc4ccc(OCc5cccc(F)c5)c(Cl)c4)c3c2)o1 [Lapatinib] (partner 2 µM)
An outline of the steps: (§1)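 Five library-drug doses in √10 steps were combined with a fixed anchor-drug dose, or a single drug was given alone, by pin tool to lung cancer cell lines in 1536-well plates the day after seeding. Nuclei were stained and counted after 5 days. Relative viability is the nuclei count in treated wells over that in vehicle wells, taken as the median of duplicate plates.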

Compound in assay [1]: CC1=CC(=CC=C1)NC2=NC(=CS2)C3=CC=NC=C3 + COc1cccc2cc(-c3nc([C@H]4CC[C@H](C(=O)O)CC4)n4ncnc(N)c34)[nH]c12 [OSI-027] (partner 0.5 µM)
The gist of the method:
as §1

Compound in the assay “Masitinib + AZD7762”: Cc1ccc(NC(=O)c2ccc(CN3CCN(C)CC3)cc2)cc1Nc1nc(-c2cccnc2)cs1 [Masitinib] + NC(=O)Nc1cc(-c2cccc(F)c2)sc1C(=O)N[C@H]1CCCNC1 [AZD7762] (partner 0.2 µM)
An outline of the steps:
as §1

Compound in the assay “Masitinib + Luminespib”: Cc1ccc(NC(=O)c2ccc(CN3CCN(C)CC3)cc2)cc1Nc1nc(-c2cccnc2)cs1 [Masitinib] + CCNC(=O)c1noc(-c2cc(C(C)C)c(O)cc2O)c1-c1ccc(CN2CCOCC2)cc1 [Luminespib] (partner 0.01 µM)
The gist of the method:
as §1

With NCI-H358, the relative viability with Masitinib + Lapatinib (first compound 0.01 µM) is 0.465; in the assay with Masitinib + Lapatinib (first compound 0.03162 µM) it was 0.479; with Masitinib + Lapatinib (first compound 0.1 µM), 0.492; with Masitinib + Lapatinib (first compound 0.3162 µM) it was 0.494; with Masitinib + Lapatinib (first compound 1 µM), 0.421; in assay [1] (first compound 0.08 µM) it was 0.674. For the same cell line, the relative viability in assay [1] (first compound 0.253 µM) worked out at 0.821; in assay [1] (first compound 0.8 µM), 0.715; in assay [1] (first compound 2.53 µM), 0.82; in assay [1] (first compound 8 µM), 0.728; with Masitinib + AZD7762 (first compound 0.01 µM), 0.524; with Masitinib + AZD7762 (first compound 0.03162 µM) it was 0.491. Moreover, the relative viability is 0.548 with Masitinib + AZD7762 (first compound 0.1 µM); 0.509 with Masitinib + AZD7762 (first compound 0.3162 µM); 0.414 in the assay with Masitinib + AZD7762 (first compound 1 µM); 0.21 in the assay with Masitinib + Luminespib (first compound 0.01 µM); 0.299 with Masitinib + Luminespib (first compound 0.03162 µM); 0.37 with Masitinib + Luminespib (first compound 0.1 µM). The relative viability amounted to 0.342 with Masitinib + Luminespib (first compound 0.3162 µM) and 0.186 in the assay with Masitinib + Luminespib (first compound 1 µM).

Take NCI-H460: the relative viability amounted to 0.996 with Masitinib + Lapatinib (first compound 0.01 µM); 1.13 in the assay with Masitinib + Lapatinib (first compound 0.03162 µM); 0.921 in the assay with Masitinib + Lapatinib (first compound 0.1 µM); 1.05 with Masitinib + Lapatinib (first compound 0.3162 µM); 1.26 with Masitinib + Lapatinib (first compound 1 µM); 0.623 in assay [1] (first compound 0.08 µM). Also, the relative viability in assay [1] (first compound 0.253 µM) is 0.522; in assay [1] (first compound 0.8 µM) it was 0.628; in assay [1] (first compound 2.53 µM), 0.486; in assay [1] (first compound 8 µM), 0.341; in the assay with Masitinib + AZD7762 (first compound 0.01 µM) it was 0.62; with Masitinib + AZD7762 (first compound 0.03162 µM), 0.605. Also, the relative viability with Masitinib + AZD7762 (first compound 0.1 µM) was 0.655; in the assay with Masitinib + AZD7762 (first compound 0.3162 µM) it was 0.357; with Masitinib + AZD7762 (first compound 1 µM), 0.525; in the assay with Masitinib + Luminespib (first compound 0.01 µM), 0.0454; in the assay with Masitinib + Luminespib (first compound 0.03162 µM) it was 0.0362; with Masitinib + Luminespib (first compound 0.1 µM) it was 0.0338. Besides, the relative viability with Masitinib + Luminespib (first compound 0.3162 µM) is 0.0453; with Masitinib + Luminespib (first compound 1 µM) it was 0.0276.

Regarding NCI-H596, the relative viability with Masitinib + Lapatinib (first compound 0.01 µM) was found to be 1.13; in the assay with Masitinib + Lapatinib (first compound 0.03162 µM), 1.2; in the assay with Masitinib + Lapatinib (first compound 0.1 µM), 1.07; in the assay with Masitinib + Lapatinib (first compound 0.3162 µM) it was 1.06; with Masitinib + Lapatinib (first compound 1 µM), 0.911; in assay [1] (first compound 0.08 µM) it was 0.652. The relative viability in assay [1] (first compound 0.253 µM) stood at 0.775; in assay [1] (first compound 0.8 µM) it was 0.777; in assay [1] (first compound 2.53 µM) it was 0.64; in assay [1] (first compound 8 µM) it was 0.609; with Masitinib + AZD7762 (first compound 0.01 µM), 1.24; with Masitinib + AZD7762 (first compound 0.03162 µM) it was 0.978. Further, the relative viability with Masitinib + AZD7762 (first compound 0.1 µM) worked out at 1.07; in the assay with Masitinib + AZD7762 (first compound 0.3162 µM), 1.1; with Masitinib + AZD7762 (first compound 1 µM), 0.973; with Masitinib + Luminespib (first compound 0.01 µM) it was 0.936; with Masitinib + Luminespib (first compound 0.03162 µM) it was 1.03; with Masitinib + Luminespib (first compound 0.1 µM), 1.11. In addition, the relative viability in the assay with Masitinib + Luminespib (first compound 0.3162 µM) turned out to be 0.53; with Masitinib + Luminespib (first compound 1 µM), 1.02.

For the cell line NCI-H647, the relative viability is 0.869 in the assay with Masitinib + Lapatinib (first compound 0.01 µM); 0.919 with Masitinib + Lapatinib (first compound 0.03162 µM); 1.07 with Masitinib + Lapatinib (first compound 0.1 µM); 1.04 with Masitinib + Lapatinib (first compound 0.3162 µM); 0.994 with Masitinib + Lapatinib (first compound 1 µM); 0.531 in assay [1] (first compound 0.08 µM). Moreover, the relative viability was found to be 0.471 in assay [1] (first compound 0.253 µM); 0.659 in assay [1] (first compound 0.8 µM); 0.585 in assay [1] (first compound 2.53 µM); 0.644 in assay [1] (first compound 8 µM); 0.587 with Masitinib + AZD7762 (first compound 0.01 µM); 0.477 in the assay with Masitinib + AZD7762 (first compound 0.03162 µM). Further, the relative viability in the assay with Masitinib + AZD7762 (first compound 0.1 µM) came to 0.535; with Masitinib + AZD7762 (first compound 0.3162 µM), 0.502; with Masitinib + AZD7762 (first compound 1 µM), 0.469; with Masitinib + Luminespib (first compound 0.01 µM), 0.223; in the assay with Masitinib + Luminespib (first compound 0.03162 µM), 0.141; with Masitinib + Luminespib (first compound 0.1 µM), 0.13. Further, the relative viability was 0.195 with Masitinib + Luminespib (first compound 0.3162 µM) and 0.259 in the assay with Masitinib + Luminespib (first compound 1 µM).

In the case of NCI-H650, the relative viability in the assay with Masitinib + Lapatinib (first compound 0.01 µM) came to 0.927; with Masitinib + Lapatinib (first compound 0.03162 µM), 0.859; with Masitinib + Lapatinib (first compound 0.1 µM), 1.09; in the assay with Masitinib + Lapatinib (first compound 0.3162 µM), 1.07; with Masitinib + Lapatinib (first compound 1 µM), 1.1; in assay [1] (first compound 0.08 µM), 0.509. For the same cell line, the relative viability in assay [1] (first compound 0.253 µM) worked out at 0.511; in assay [1] (first compound 0.8 µM), 0.544; in assay [1] (first compound 2.53 µM) it was 0.475; in assay [1] (first compound 8 µM), 0.578; with Masitinib + AZD7762 (first compound 0.01 µM) it was 1.07; in the assay with Masitinib + AZD7762 (first compound 0.03162 µM), 1.02. In addition, the relative viability with Masitinib + AZD7762 (first compound 0.1 µM) is 1.23; in the assay with Masitinib + AZD7762 (first compound 0.3162 µM) it was 1.15; with Masitinib + AZD7762 (first compound 1 µM), 0.946; in the assay with Masitinib + Luminespib (first compound 0.01 µM), 0.7; with Masitinib + Luminespib (first compound 0.03162 µM), 0.908; in the assay with Masitinib + Luminespib (first compound 0.1 µM), 0.798. For the same cell line, the relative viability in the assay with Masitinib + Luminespib (first compound 0.3162 µM) was 0.853; with Masitinib + Luminespib (first compound 1 µM), 0.766.

As for NCI-H727, the relative viability with Masitinib + Lapatinib (first compound 0.01 µM) was found to be 0.923; in the assay with Masitinib + Lapatinib (first compound 0.03162 µM), 0.95; with Masitinib + Lapatinib (first compound 0.1 µM), 0.857; with Masitinib + Lapatinib (first compound 0.3162 µM) it was 0.914; with Masitinib + Lapatinib (first compound 1 µM), 0.68; in assay [1] (first compound 0.253 µM), 0.412. Moreover, the relative viability in assay [1] (first compound 0.8 µM) worked out at 0.597; in assay [1] (first compound 2.53 µM), 0.618; in assay [1] (first compound 8 µM), 0.568; with Masitinib + AZD7762 (first compound 0.01 µM), 0.592; in the assay with Masitinib + AZD7762 (first compound 0.03162 µM), 0.626; in the assay with Masitinib + AZD7762 (first compound 0.1 µM), 0.566. Besides, the relative viability with Masitinib + AZD7762 (first compound 0.3162 µM) was found to be 0.495; in the assay with Masitinib + AZD7762 (first compound 1 µM), 0.606; with Masitinib + Luminespib (first compound 0.01 µM) it was 0.494; with Masitinib + Luminespib (first compound 0.03162 µM) it was 0.324; with Masitinib + Luminespib (first compound 0.1 µM), 0.831; with Masitinib + Luminespib (first compound 0.3162 µM), 0.341. Moreover, the relative viability in the assay with Masitinib + Luminespib (first compound 1 µM) came out at 0.416.

NCI-H838: the relative viability is 0.808 with Masitinib + Lapatinib (first compound 0.01 µM); 0.846 with Masitinib + Lapatinib (first compound 0.03162 µM); 0.774 in the assay with Masitinib + Lapatinib (first compound 0.1 µM); 0.794 with Masitinib + Lapatinib (first compound 0.3162 µM); 1.02 with Masitinib + Lapatinib (first compound 1 µM); 0.318 in assay [1] (first compound 0.08 µM). Further, the relative viability came to 0.357 in assay [1] (first compound 0.253 µM); 0.37 in assay [1] (first compound 0.8 µM); 0.386 in assay [1] (first compound 2.53 µM); 0.348 in assay [1] (first compound 8 µM); 0.818 with Masitinib + AZD7762 (first compound 0.01 µM); 0.883 with Masitinib + AZD7762 (first compound 0.03162 µM). In addition, the relative viability in the assay with Masitinib + AZD7762 (first compound 0.1 µM) came to 0.913; in the assay with Masitinib + AZD7762 (first compound 0.3162 µM), 0.845; with Masitinib + AZD7762 (first compound 1 µM), 0.892; with Masitinib + Luminespib (first compound 0.01 µM), 0.314; in the assay with Masitinib + Luminespib (first compound 0.03162 µM) it was 0.309; in the assay with Masitinib + Luminespib (first compound 0.1 µM), 0.245. Besides, the relative viability in the assay with Masitinib + Luminespib (first compound 0.3162 µM) came out at 0.241; with Masitinib + Luminespib (first compound 1 µM), 0.263.
